Each block holds one compound with its values, some of them ahead of it.
How the values were obtained:
[1] = Oral bioavailability in rat at 10 mg/kg; type: ADME, organism-based; conditions: in vivo
[2] = AUC (0 to infinity) in rat at 10 mg/kg, po; type: ADME, organism-based; set-up: time infinity, dose 10 mg/kg, route oral; conditions: plasma
[3] = Half life in rat at 10 mg/kg, po; type: ADME, organism-based; set-up: dose 10 mg/kg, route oral; conditions: in vivo
[4] = Drug uptake in VEGF-stimulated mouse lung at 100 mg/kg, po after 4 hrs; type: ADME, organism-based; set-up: dose 100 mg/kg, route oral; conditions: read-out: Drug uptake
[5] = Drug uptake in human MDA-MB-231 cells xenografted mouse tumor at 1 mg/kg; type: ADME, organism-based, Neoplasm; set-up: dose 1 mg/kg; conditions: in vivo, BLD = below limit of detection
[6] = Plasma concentration in VEGF stimulated-mouse at 10 mg/kg, po after 4 hrs; type: ADME, organism-based; set-up: dose 10 mg/kg, route oral
[7] = Drug uptake in VEGF-stimulated mouse lung at 10 mg/kg, po after 4 hrs; type: ADME, organism-based; set-up: dose 10 mg/kg, route oral; conditions: read-out: Drug uptake
[8] = Plasma concentration in VEGF stimulated-mouse at 60 mg/kg, po after 4 hrs; type: ADME, organism-based; set-up: dose 60 mg/kg, route oral
Plasma [9] = assay: Plasma concentration in human MDA-MB-231 cells xenografted mouse at 10 mg/kg; type: ADME, organism-based; set-up: dose 10 mg/kg; conditions: in vivo
[10] = Plasma concentration in VEGF stimulated-mouse at 100 mg/kg, po after 4 hrs; type: ADME, organism-based; set-up: dose 100 mg/kg, route oral
Plasma [11] = assay: Plasma concentration in human MDA-MB-231 cells xenografted mouse at 3 mg/kg; type: ADME, organism-based; set-up: dose 3 mg/kg; conditions: in vivo
[12] = Drug uptake in VEGF-stimulated mouse lung at 30 mg/kg, po after 4 hrs; type: ADME, organism-based; set-up: dose 30 mg/kg, route oral; conditions: read-out: Drug uptake
[13] = Drug uptake in human MDA-MB-231 cells xenografted mouse tumor at 60 mg/kg; type: ADME, organism-based, Neoplasm; set-up: dose 60 mg/kg; conditions: in vivo, read-out: Drug uptake
[14] = Drug uptake in human MDA-MB-231 cells xenografted mouse tumor at 3 mg/kg; type: ADME, organism-based, Neoplasm; set-up: dose 3 mg/kg; conditions: in vivo, BLD = below limit of detection
[15] = Drug uptake in human MDA-MB-231 cells xenografted mouse tumor at 30 mg/kg; type: ADME, organism-based, Neoplasm; set-up: dose 30 mg/kg; conditions: in vivo, read-out: Drug uptake
[16] = Drug uptake in VEGF-stimulated mouse lung at 3 mg/kg, po after 4 hrs; type: ADME, organism-based; set-up: dose 3 mg/kg, route oral; conditions: read-out: Drug uptake
Plasma [17] = assay: Plasma concentration in human MDA-MB-231 cells xenografted mouse at 1 mg/kg; type: ADME, organism-based; set-up: dose 1 mg/kg; conditions: in vivo, BLD = below limit of detection
[18] = Drug uptake in human MDA-MB-231 cells xenografted mouse tumor at 10 mg/kg; type: ADME, organism-based, Neoplasm; set-up: dose 10 mg/kg; conditions: in vivo, read-out: Drug uptake
Plasma [19] = assay: Plasma concentration in human MDA-MB-231 cells xenografted mouse at 100 mg/kg; type: ADME, organism-based; set-up: dose 100 mg/kg; conditions: in vivo
Plasma [20] = assay: Plasma concentration in human MDA-MB-231 cells xenografted mouse at 60 mg/kg; type: ADME, organism-based; set-up: dose 60 mg/kg; conditions: in vivo
[21] = Plasma concentration in VEGF stimulated-mouse at 30 mg/kg, po after 4 hrs; type: ADME, organism-based; set-up: dose 30 mg/kg, route oral
[22] = Plasma concentration in VEGF stimulated-mouse at 3 mg/kg, po after 4 hrs; type: ADME, organism-based; set-up: dose 3 mg/kg, route oral
[23] = Plasma concentration in athymic nu/nu mouse bearing human HT-29 tumor at 10 to 100 mg/kg, po administered QD for 14 days; type: ADME, organism-based; set-up: dose 10-100 mg/kg, route oral
[24] = Permeability across MDCK cells; type: ADME, cell-based, Canis lupus familiaris; conditions: dog, read-out: permeability
[25] = Drug uptake in VEGF-stimulated mouse lung at 60 mg/kg, po after 4 hrs; type: ADME, organism-based; set-up: dose 60 mg/kg, route oral; conditions: read-out: Drug uptake
[26] = Plasma concentration in VEGF stimulated-mouse at 1 mg/kg, po after 4 hrs; type: ADME, organism-based; set-up: dose 1 mg/kg, route oral
[27] = Plasma concentration in athymic nu/nu mouse bearing human MDA-MB-231 tumor at 10 to 100 mg/kg, po administered QD for 14 days; type: ADME, organism-based; set-up: dose 10-100 mg/kg, route oral
Plasma [28] = assay: Plasma concentration in human MDA-MB-231 cells xenografted mouse at 30 mg/kg; type: ADME, organism-based; set-up: dose 30 mg/kg; conditions: in vivo
[29] = Drug uptake in human MDA-MB-231 cells xenografted mouse tumor at 100 mg/kg; type: ADME, organism-based, Neoplasm; set-up: dose 100 mg/kg; conditions: in vivo, read-out: Drug uptake
Lung = assay: Drug uptake in VEGF-stimulated mouse lung at 1 mg/kg, po after 4 hrs; type: ADME, organism-based; set-up: dose 1 mg/kg, route oral; conditions: in vivo, BLD = below limit of detection
[30] = Clearance in rat; type: ADME, organism-based; conditions: in vivo
[31] = Oral bioavailability in rat; type: ADME, organism-based; conditions: in vivo

- bioavailability [1]: 16%
- AUC(0-inf) [2]: 1.5 µM·h
- half-life [3]: 11.6 h
SMILES: CCN1CCC(Nc2ccc3c(c2)C(=C(c2ccccc2)c2ncc[nH]2)C(=O)N3)CC1 (mixture of isomers)

- bioavailability [1]: 15%
- AUC(0-inf) [2]: 1.12 µM·h
- half-life [3]: 5.4 h
SMILES: CCN1CCC(Nc2ccc3c(c2)C(=C(c2cccc(F)c2)c2ncc[nH]2)C(=O)N3)CC1 (mixture of isomers)

- bioavailability [1]: 59%
- AUC(0-inf) [2]: 5.19 µM·h
- half-life [3]: 7.2 h
SMILES: CCN1CCC(Nc2ccc3c(c2)C(=C(c2cc(F)cc(F)c2)c2nc(C)c[nH]2)C(=O)N3)CC1 (mixture of isomers)

- bioavailability [1]: 25%
- AUC(0-inf) [2]: 1.03 µM·h
- half-life [3]: 2.3 h
SMILES: CCN1CCC(Nc2ccc3c(c2)C(=C(c2nc(C)c[nH]2)c2ccccc2F)C(=O)N3)CC1 (mixture of isomers)

- bioavailability [1]: 20%
- AUC(0-inf) [2]: 1.9 µM·h
- half-life [3]: 4.6 h
SMILES: CCN1CCC(Nc2ccc3c(c2)C(=C(c2cccc(F)c2)c2ncc(C)[nH]2)C(=O)N3)CC1 (mixture of isomers)

The remaining lines, values behind:

SMILES: CCN1CCC(Nc2ccc3c(c2)C(=C(c2cc(F)cc(F)c2)c2nc4ccccc4[nH]2)C(=O)N3)CC1 (mixture of isomers)
- bioavailability [1]: 72%
- AUC(0-inf) [2]: 3.14 µM·h
- half-life [3]: 3.8 h

SMILES: CCN1CCC(Nc2ccc3c(c2)C(=C(c2ccc(C)cc2)c2nc4ccccc4[nH]2)C(=O)N3)CC1 (mixture of isomers)
- bioavailability [1]: 55%
- AUC(0-inf) [2]: 2.36 µM·h
- half-life [3]: 4.6 h

SMILES: CCN1CCC(Nc2ccc3c(c2)C(=C(c2cccc(F)c2)c2nc4ccccc4[nH]2)C(=O)N3)CC1 (mixture of isomers)
- bioavailability [1]: 63%
- AUC(0-inf) [2]: 1.99 µM·h
- half-life [3]: 4.4 h

SMILES: CCN1CCC(Nc2ccc3c(c2)C(=C(c2ccccc2)c2nc4ccccc4[nH]2)C(=O)N3)CC1 (mixture of isomers)
- bioavailability [1]: 37%
- AUC(0-inf) [2]: 1.44 µM·h
- half-life [3]: 5.7 h

SMILES: CCN1CCC(Nc2ccc3c(c2)C(=C(c2ccc(Cl)cc2)c2ncc[nH]2)C(=O)N3)CC1 (mixture of isomers)
- bioavailability [1]: 63%
- concentration at 4 h [4]: 3550 nM
- Drug uptake [5]: BLD
- concentration at 4 h [6]: 20 nM
- concentration at 4 h [7]: 280 nM
- concentration at 4 h [8]: 10 nM
- concentration (Plasma [9]): 40 nM
- concentration at 4 h [10]: 620 nM
- concentration (Plasma [11]): 10 nM
- concentration at 4 h [12]: 470 nM
- concentration [13]: 3600 nM
- Drug uptake [14]: BLD
- AUC(0-inf) [2]: 5.04 µM·h
- concentration [15]: 1400 nM
- concentration at 4 h [16]: 70 nM
- Cp (Plasma [17]): BLD
- concentration [18]: 340 nM
- concentration (Plasma [19]): 800 nM
- concentration (Plasma [20]): 260 nM
- concentration at 4 h [21]: 10 nM
- concentration at 4 h [22]: 10 nM
- concentration at 336 h [23]: 1000 nM
- Papp [24]: 6.8 ×10⁻⁶ cm/s
- concentration at 4 h [25]: 810 nM
- concentration at 4 h [26]: 4 nM
- concentration at 336 h [27]: 1000 nM
- concentration (Plasma [28]): 200 nM
- concentration [29]: 8800 nM
- half-life [3]: 10.7 h
- Drug uptake (Lung): BLD

SMILES: CCN1CCC(Nc2ccc3c(c2)C(=C(c2ccc(OC)cc2)c2nc4ccccc4[nH]2)C(=O)N3)CC1 (mixture of isomers)
- bioavailability [1]: 27%
- AUC(0-inf) [2]: 0.33 µM·h
- half-life [3]: 7.5 h

SMILES: CCN1CCC(Nc2ccc3c(c2)C(=C(c2ccccc2)c2nc4cc(OC)ccc4[nH]2)C(=O)N3)CC1 (mixture of isomers)
- clearance [30]: 108 mL/min/kg
- bioavailability [31]: 19%
